Data taken from patent US7129080B2 (priority 2001, dated 2006).
Converted amounts (≈) assume the structure as drawn. Where a name gives a salt, the structure may show the parent alone. Read-outs that look alike come from different tables or passages of the source.

What was measured:
prion model [1] = assay: organism not typed; assay type: cell-based
prion model [2] = assay type: biochemical
prion model [3] = assay type: cell-based; settings: ethylene oxide 600 mg/L, 18 mins, initial count 8.5

Row | SMILES | activity at inhibiting the growth of the prion model in culture media (prion model [1]) | concentration showing at least some effect on growth of the prion model (MIC test) (prion model [1]) | further results
1 | [Mn+2] [Manganese] | measurable activity | ~100 mg/L | –
2 | O=[N+]([O-])[O-].[Ag+] [silver nitrate] | measurable activity | ~30 mg/L | –
3 | CC(=O)OO [Peracetic acid] | – | – | breakdown of the protein (prion model [2]): break down the protein to a form which is inactive; MIC (prion model [1]; read-out: concentration showing at least some effect on growth of the prion model (MIC test)): ~600 µg/mL (≈ 7.89 mM)
4 | NC[C@@H]1O[C@H](O[C@H]2[C@@H](O)[C@H](O[C@@H]3[C@@H](O)[C@H](N)C[C@H](N)[C@H]3O[C@H]3O[C@H](CN)[C@@H](O)[C@H](O)[C@H]3N)O[C@@H]2CO)[C@H](N)[C@@H](O)[C@@H]1O.O=S(=O)(O)O [neomycin sulphate] | measurable activity | ~125 mg/L | –
5 | Cl [HCl] | – | ~0.1 N | –
6 | C1CO1 [ethylene oxide] | – | – | Prion count in Logs (prion model [3]; 54° C., 40% RH): 4.7 Logs; Prion count in Logs (prion model [3]; 70° C., 100% RH): 5.0 Logs
7 | [Na+].[OH-] [NaOH, sodium hydroxide] | effective | ~0.01 N | –
